Laboratory results as given in patent US9417257B2, “System and method for collecting, storing, processing, transmitting and presenting very low amplitude signals” (Nativis, Inc., priority 2004, dated 2016).
Where a SMILES comes first, the peptide text is derived from it. [ ]: non-standard residue; d: D form. Nle = CCCC[C@H](N)C(=O)O

Experiments:
[1] = tested on: araC-PBAD promoter dependent expression of GFPuv; conditions: cited from earlier work
[2] = tested on: araC-PBAD promoter dependent expression of GFPuv; assay: Induction of araC-PBAD GFPuv reporter in pBAD-GFPuv transformed JM109 bacteria, whole cell fluorescence; format: cell-based, E coli; conditions: MIDS = signal playback
Text: The reporter system for sugar sensing was obtained from a commercial supplier. In this system, bacteria are transformed with a plasmid that consists of the gene for AraC, which acts as an activator of the ara operon, and the gene for a variant green florescent protein, under the control of the PBAD promoter. L-arabinose specifically binds to araC and rapidly turns on transcription in a time dependent fashion reaching a maximum expression level within 3 hr as monitored by intact whole cell fluorescence of the expressed GFP. GFPuv expression is linear with dose over two logs of concentration of L-arabinose (1-500 uM).
The inherent (MIDS) emission signals of L and D-arabinose are obtained as detailed above, employing a 0.1 mM solution of L(+) Ara or D(+) Ara for signal recording, and the autocorrelation/FFT method for identifying optimized time-domain signals.
Transduction experiments were performed with two sets of coils. In the first system, a pair of coils consisting of 30 gauge aluminum wire was wound around a 3″ tall section of PVC core with 2⅝″ o.d., wound to 35× the number of windings of starting coils. These were place inside aluminum Faraday boxes 5½×4″×8¾″ (W×H×D) to isolate samples for crossover RF signals. Both boxes were placed upon the orbital shaker platform to aerate transducing cultures.
In the second set of three 4″ tall stock 4000-ft spools of 28G insulated copper wired with 1″ i.d. plastic cores were directly used as transduction coils (“Mega coils”) and two coils were driven with the MIDS signals, while the third control coil was driven by a random white noise generator. In this case, all three coils were isolated in Faraday boxes, and mounted separated by 2 ft on a 6-ft plank that was fitted to the orbital shaker. This ensured that all three samples were agitated at the same speed with one shaker. Thermistor temperature probes were also place into the core of each coil proximal to the sample to provide real-time reading of temperature. Both sets of MIDS signal coils were driven at the highest input voltage setting until their temperature equilibrated near 94-97° F. from resistive heating of the wound wire. Samples were centered in the core of the coil to experience the maximum and most uniform area of RF flux. (a limitation of the current set-up was the linkage of heating with driving voltages which control RF flux).
In a typical experiment, 1-3 drops of overnight cultures of pBAD-GFPuv transformed JM109 grown in Luria broth containing 100-500 ug/ml of sodium ampicillin (LB/amp) were used to seed 50 ml fresh LB/amp. This was well mixed and 10 ml transferred to 25-ml Erlenmeyer flasks, and 0.1 ml of 100× stocks of reference chemical inducers (D or L arabinose) were added to final concentrations desired. These seeded cultures were placed into either the transduction coils, or left on the shaker platform as controls. (Another limitation of the current set up is the availability of only one shaker table, forcing a choice between incubation at controlled above ambient temperature to match the coils but without agitation, or agitation simply at ambient temperature. Also the matching of the coil temperatures varies about 2-3° F. and cannot be precisely controlled or determined). In most cases the transductions were conducted as overnight incubations.
After transduction was stopped, 1.2 ml of bacterial cell culture suspension were transferred to 1.7 ml microcentrifuge tubes and centrifuge 1-2 mins at 12,000 rpm (10,000×rcg). Supernatant broth was removed, discarded and the bacterial pellets re-suspended in 1 ml of ice-cold PBS. Washed suspensions were centrifuged again, PBS wash discarded, pellets re-suspended in fresh PBS, transferred to cuvettes to measure OD600 nm, then volumes were adjusted to match cell density among samples.
For each of the studies reported here, % Relative=[(Fluor. of L(+)ara MIDS)−(Fluor. of D(−)ara MIDS)]
Induction (Fluor. of D(−) ara MIDS).

pea sprouts = assay: Sugar pea sprout stem length, inhibition by herbicide; format: in vivo; conditions: 72 hour, 37° C., 100% humidity; FIG. 31
Experimental: The optimized inherent (MIDS) emission signals of glyphosphate were obtained as described in Sections II and III above, using system equipment and protocols as detailed in Examples 1 and 2 below. In one experiment, an optimized glyphosphate MIDS signal was applied to pea sprouts supported on a moist medium, with signal application over a 72 hour period at 37° C., 100% humidity. Various controls included (1) no signal, (2), the chemical Roundup®, and (3) a white noise signal. Stem length was measured within a hour after exposure to the stimulus, and 5-50 sprouts were contained in each group.

20S proteasome = target: T1, 20S proteasome (Homo sapiens, UniProt P28074); assay: 20S proteasome assay, cleavage of Suc-Leu-Leu-Val-Tyr-AMC (fluorescence); format: biochemical
T1 construct: purchased EMD Biosciences 539158
Text: The 20S proteasome enzyme is activated with a mild detergent (SDS). The cleavage of the substrate Suc-Leu-Leu-Val-Tyr-AMC by the activated enzyme liberates the fluorescent AMC molecules that can be monitored by exciting AMC at 380 nm and detecting the fluorescence at 460 nm. Proteosome activity is inhibited by phepropeptin D.
In a first study, the ability of phepropeptin D and a MIDS signal of phepropeptin D to inhibit proteosome activity, as measured by the appearance of conversion of the substrate Suc-Leu-Leu-Val-Tyr-AMC to yield a fluorescent signal were measured, following substantially the same methodology described above and in the examples.
The 20S Proteasome assay kit (EMD Biosciences Cat #539158) was adapted for use in a cuvette format with a final volume of 200 μl. Nine samples were set-up using the following procedure:
Reaction buffer (20×) was diluted, 100 μl with 880 μl of HPLC grade water and 20 μl of 100× activation buffer to a final volume of 1 ml.
100 μl of the diluted 2× reaction buffer was added to each of the no enzyme control tubes.
The 20S proteasome enzyme was added to the remaining solution, 3.2 μl to 800 μl of 2× reaction buffer and 100 μl added to each of 7 remaining tubes.
To each tube 100 μl of water or water and inhibitor were added.
In a separate tube 4 μl of the substrate was diluted with 96 μl of HPLC grade water and 10 μl/tube of the diluted substrate was added to each of the reaction tubes to obtain a final volume of 200 μl.
Samples were all mixed by repeated pipetting and the reactions incubated at 37 C for 2 hrs.
Fluorescence was quantiated and recorded using a fluorometer (Turner Designs, Sunnyvale, Calif.—Model TD-700).
In a follow-up study, samples were allowed to incubate at room temperature overnight to determine if the substrate would continue to be converted to the fluorescent product. […]

[3] = tested on: MDA-MB-435 human breast tumor; assay: MDA-MB-435 human breast tumor mouse xenograft; format: in vivo, athymic nude mice; conditions: day 36; outliers removed; taxol 15 mg/kg i.p. twice a wk; MIDS continuous playback
Experimental: Method: MIDS measurement was made in glass sample holders (Kimble autoinjector vials) on (1) neat solution of the preformulated taxol clinical vial, using a 1 ml tuberculin syringe, and 22G needle, to withdraw 0.7 ml from multidose vial (preserve sterility and integrity of solution, so don't syringe back in), then (2) this 0.7 ml taxol formulation will be used to dissolve additional 1 mg vials of taxol, to increase the amount of taxol relative to Cremophor®. The study was designed to evaluate the efficacy of a transduction technology to inhibit tumor growth in an in vivo human tumor mouse xenograft model, and to compare its effect to a standard chemotherapeutic treatment-taxol. 5 million MDA-MB-435 cells, in suspension, were subcutaneously injected into the flanks of athymic nude mice. Treatment began the same day of cell implant (Day 1). Animals were assigned to one of 4 groups. Each animal was monitored for tumor growth twice per week for the duration of the study. One group was treated with Taxol, Two groups were treated with transduction and one group was treated with the taxol vehicle to act as a control.
The mice were athymic nude mice nu/nu with a BALB/c background. Implanted with 5 million of breast cancer tumor line MDA-MB-435(NCI standard originally from the NCI) from American Culture Type Collection, ATCC (Rockville, Md.). […]

[4] = Experiment 1, OD-matched cells, L(+) Ara 0.2 mM, D(−) Ara 1 mM
[5] = Experiment 2, L(+) ara 0.25 mM, D(−) ara 1 mM

Row | Compound | Fluorescence Average rfu [2, 4] | Fluorescence rfu1 [2, 4] | Fluorescence rfu2 [2, 4] | Fluorescence rfu3 [2, 4] | Fluorescence Average rfu [2, 5] | Fluorescence rfu1 [2, 5] | Fluorescence rfu2 [2, 5] | Fluorescence rfu3 [2, 5] | also measured
1 | O=C[C@H](O)[C@@H](O)[C@@H](O)CO [L(+) Ara, L(+)-arabinose] | 833.5 rfu | 835.0 rfu | 832.7 rfu | 832.7 rfu | 939.7 rfu | 940.0 rfu | 939.4 rfu | 939.7 rfu | concentration range over which GFPuv expression is linear with dose [1]: 1 to 500 µM; potency [1]: 100 µM; time to maximum expression level of GFP ([1]; whole cell fluorescence): ≤ 3 h
2 | O=C(O)CNCP(=O)(O)O [glyphosphate, N-phosphonomethylglycine] |  |  |  |  |  |  |  |  | stem growth (in words) (pea sprouts): effective in substabtially inhibited stem growth
3 | CCCC[C@@H](C=O)NC(=O)[C@H](CC(C)C)NC(=O)[C@H](CC(C)C)NC(C)=O [ALLN] (Ac-Leu-Leu-[Nle]-aldehyde) |  |  |  |  |  |  |  |  | Fluorescence relative to positive control sample #2 set to 700 (20S proteasome; 37 C, 2 hrs, MIDS 60 mG AC field): 25.83; % Normalized Fluorescence (20S proteasome; 1 hr 30 min): 4.975%; % Normalized Fluorescence (20S proteasome; 20 hrs post, room temperature overnight, removed from the field): 2.646%
4 | CC(=O)O[C@H]1C(=O)[C@@]2(C)[C@H]([C@H](OC(=O)c3ccccc3)[C@]3(O)C[C@H](OC(=O)[C@H](O)[C@@H](NC(=O)c4ccccc4)c4ccccc4)C(C)=C1C3(C)C)[C@]1(OC(C)=O)CO[C@@H]1C[C@@H]2O [taxol] |  |  |  |  |  |  |  |  | tumor growth inhibition [3]: 43%
5 | O=C[C@@H](O)[C@H](O)[C@H](O)CO [D(−) Ara, D(−)-arabinose] | 297.7 rfu | 297.6 rfu | 297.8 rfu | 297.7 rfu | 226.5 rfu | 226.7 rfu | 226.7 rfu | 226.1 rfu | binding of araC and activation of genes downstream of the PBAD promoter (in words) ([1]; even at 1000-fold higher concentration than L-arabinose): does not bind araC, nor activate expression of genes downstream of the PBAD promoter
